Results from patent US6930092B1, “Antibiotic agents” (priority 1999, dated 2005).
Where two headings read alike, the source gives them in different places.

Tests used:
[1] = Degradation of 5-deB in Britton-Robinson buffer followed by 1D 1H NMR; type: physicochemical; conditions: apparent pH 2.5, 55° C., 5 hr
Text: The deuteriation effects at C8 as in erythromycin B were observed but there was no change elsewhere.

[2] = type: physicochemical
Method: The suspected intermediate, eBee was prepared and then was added into a partially degraded erythromycin B, the mixture of partially degraded erythromycin B, and the pure eBee solution were compared. […] However, the involvement of eBee as the intermediate in the degradation of erythromycin B was clearly observed in the degradation experiment of eBee.
At present, there is no mechanism of degradation of erythromycin B which has been proposed. An experiment was designed to distinguish whether eBee is degraded to 5-deB via erythromycin B or not. Britton-Robinson buffers, 40 mM of pH2 and 7 were prepared and aliquoted into eppendorf tubes. Just before the experiment started, erythromycin B was dissolved in 20 ul of dimethyl-d6 sulfoxide (99.9 atom % D, Sigma, St Louis, USA) and then was transferred immediately into the buffer and 1D^1H NMR spectra were recorded at 37° C. The typical spectra at 0, 10 and 20 min are depicted in FIGS. 19, 20 and 21, respectively.
After 10 min, the amount of eBee was reduced to almost 40%, but 5-deB was still undetectable. After 20 min, 5-deB appeared in the spectrum, characterised by its H13 at δ5.38, whilst eBee became insignificant in the spectrum.
A similar experiment was repeated by using buffer at pH 7, and 1D^1H spectra were recorded at 37° C. The spectrum of eBee after 0 and 60 min of incubation are depicted in FIGS. 22 and 23, respectively. […] There was trace of erythromycin B but no eBee was detected in the spectra.

[3] = cited from earlier work

## CC[C@H]1OC(=O)[C@H](C)[C@@H](O[C@H]2C[C@@](C)(OC)[C@@H](O)[C@H](C)O2)[C@H](C)[C@@H](O[C@@H]2O[C@H](C)C[C@H](N(C)C)[C@H]2O)[C@](C)(O)C[C@@H](C)C(=O)[C@H](C)[C@@H](O)[C@H]1C [erythromycin B, Erythromycin B]
pH 2.5, depending on the temperature used
  time in which decomposition was completed: 6 to 12 h
pH 4.6
  degradation: degradation occurred very slowly

## 5-desosaminyl erythronolide B [5-deB]
[1]
  further degradation: does not degrade further

## CC[C@H]1OC(=O)[C@H](C)[C@@H](O[C@H]2C[C@@](C)(OC)[C@@H](O)[C@H](C)O2)[C@H](C)[C@@H](O[C@@H]2O[C@H](C)C[C@H](N(C)C)[C@H]2O)C2(C)CC(C)=C(O2)[C@H](C)[C@@H](O)[C@H]1C (stereo partly shown) [eBee, erythromycin B enol ether]
[2]; Britton-Robinson buffer pH 2, 37° C., after 20 min
  amount of eBee in the spectrum: insignificant
[2]; buffer, 10 min, pH 2
  amount of eBee remaining: ~40%
[2]; pH 2.5
  degradation: rapidly degraded to erythromycin B
[2]; pH 7
  degradation: not degraded at least for 80 min

## CC[C@H]1OC(=O)[C@H](C)[C@@H](O[C@H]2C[C@@](C)(OC)[C@@H](O)[C@H](C)O2)[C@H](C)[C@@H](O[C@@H]2O[C@H](C)C[C@H](N(C)C)[C@H]2O)[C@](C)(O)C[C@@H](C)C(=O)[C@H](C)[C@@H](O)[C@]1(C)O [erythromycin A]
[3]; 50 mM acetate buffer pH 4.6, 60° C.
  time in which degraded to completeness: ≤ 3 h
[3]; 50 mM formate buffer pH 4, 37° C.
  time in which decomposed almost completely: ≤ 4 h
[3]; pH 3.5, 35° C.
  degradation: degraded substantially even before the first spectrum was recorded
